Laboratory results published in patent publication US11873295B2, “Allosteric chromenone inhibitors of phosphoinositide 3-kinase (PI3K) for the treatment of disease” (Petra Pharma Corporation, priority 2021, dated 2024).

Columns and labels:
[1] = tested on: PI3K-α (PIK3CA) in MDA-MB-453 cells; experiment: PI3K-alpha kinase (PIK3CA) activity in vitro cell based assay, MDA-MB-453 cells, AlphaLisa SureFire; details: Homo sapiens, MDA-MB-453, 3 h, 0% FBS, 3 hours treatment, relative IC50
Outline: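 MDA-MB-453 cells in serum-free MEM with 1 μg/mL insulin treated 3 h with 10-point 1:3 compound dilutions, 0.3% DMSO. Lysates read by AlphaLisa SureFire; percent inhibition relative to DMSO (max) and 1 μM GDC-0032 (min), duplicate means fitted to 4-parameter logistic for relative IC50.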

[2] = biological target: T1, human full length PIK3KA H1047R mutant (p110α/p85α complex) (Homo sapiens, UniProt P42336, H1047R); experiment: PI3K-alpha kinase (PIK3CA) biochemical activity, H1047R mutant, ADP-Glo; details: PI3K-α (PIK3CA) biochemical, H1047R mutant, Soy PI lipid substrate
T1 construct: Recombinant, catalytically active human full length PIK3KA Wild-type and H1047R mutant were purchased as 1:1 complex; 6xHis (N); purchased EMD Millipore Sigma 14-792M
T1 sequence (P42336 whole entry H1047R): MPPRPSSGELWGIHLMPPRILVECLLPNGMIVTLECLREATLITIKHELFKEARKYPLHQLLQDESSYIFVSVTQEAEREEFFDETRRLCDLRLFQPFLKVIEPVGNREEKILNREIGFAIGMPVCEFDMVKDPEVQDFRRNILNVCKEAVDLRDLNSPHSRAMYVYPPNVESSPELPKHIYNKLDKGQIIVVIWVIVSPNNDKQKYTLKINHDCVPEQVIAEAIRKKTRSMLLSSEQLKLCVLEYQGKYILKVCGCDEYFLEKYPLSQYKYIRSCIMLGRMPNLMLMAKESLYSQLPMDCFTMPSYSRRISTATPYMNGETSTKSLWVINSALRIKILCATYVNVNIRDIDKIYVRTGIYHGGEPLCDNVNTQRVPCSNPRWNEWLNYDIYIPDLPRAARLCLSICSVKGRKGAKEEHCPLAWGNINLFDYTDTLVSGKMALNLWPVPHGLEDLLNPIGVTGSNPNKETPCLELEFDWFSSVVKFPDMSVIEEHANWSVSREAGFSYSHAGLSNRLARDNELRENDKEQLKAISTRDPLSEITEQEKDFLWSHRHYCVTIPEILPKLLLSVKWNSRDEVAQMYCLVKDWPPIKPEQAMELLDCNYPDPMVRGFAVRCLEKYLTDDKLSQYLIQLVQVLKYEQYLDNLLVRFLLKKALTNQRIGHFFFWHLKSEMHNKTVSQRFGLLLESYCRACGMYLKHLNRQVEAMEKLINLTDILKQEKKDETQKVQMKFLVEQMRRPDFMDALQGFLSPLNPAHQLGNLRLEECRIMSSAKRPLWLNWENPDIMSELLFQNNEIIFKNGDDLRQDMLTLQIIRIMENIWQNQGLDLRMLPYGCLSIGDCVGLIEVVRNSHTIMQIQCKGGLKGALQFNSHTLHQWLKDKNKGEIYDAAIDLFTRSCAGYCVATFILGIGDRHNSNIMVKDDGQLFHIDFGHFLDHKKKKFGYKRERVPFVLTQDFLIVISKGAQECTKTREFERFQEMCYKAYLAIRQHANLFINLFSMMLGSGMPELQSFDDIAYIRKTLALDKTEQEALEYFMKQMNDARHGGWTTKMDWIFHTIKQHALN
T1 sequence (P27986 whole entry partner): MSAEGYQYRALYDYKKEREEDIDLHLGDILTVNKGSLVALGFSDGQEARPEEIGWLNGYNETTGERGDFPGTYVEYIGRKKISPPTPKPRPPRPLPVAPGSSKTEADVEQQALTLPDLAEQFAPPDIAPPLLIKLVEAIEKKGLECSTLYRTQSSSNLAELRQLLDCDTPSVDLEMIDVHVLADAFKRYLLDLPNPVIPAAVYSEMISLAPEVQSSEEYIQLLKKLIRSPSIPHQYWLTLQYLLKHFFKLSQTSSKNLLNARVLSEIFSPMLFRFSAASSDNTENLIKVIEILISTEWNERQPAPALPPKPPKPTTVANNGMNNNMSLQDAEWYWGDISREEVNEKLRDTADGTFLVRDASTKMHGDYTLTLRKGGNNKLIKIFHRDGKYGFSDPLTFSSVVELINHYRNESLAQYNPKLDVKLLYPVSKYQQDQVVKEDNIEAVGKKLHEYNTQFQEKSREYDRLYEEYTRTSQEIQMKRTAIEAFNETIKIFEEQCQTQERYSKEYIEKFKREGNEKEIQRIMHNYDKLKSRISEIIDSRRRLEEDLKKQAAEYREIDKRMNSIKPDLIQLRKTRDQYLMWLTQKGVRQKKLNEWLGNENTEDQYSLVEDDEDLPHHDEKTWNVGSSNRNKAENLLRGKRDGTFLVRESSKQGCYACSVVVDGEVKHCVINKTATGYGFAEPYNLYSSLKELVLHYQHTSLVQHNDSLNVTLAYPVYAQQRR
Outline: (§1)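 ADP formation, read by ADP-Glo, is run to about 10% ATP turnover at 27 °C with 20 μM ATP and 50 μM PIP2diC8 or soy PI. WT or H1047R p110α/p85α (1–5 nM) is pre-incubated 1 h with compound in HEPES pH 7.4/MgCl2/Triton buffer, 1% DMSO. 10-point 1:3 series, logistic IC50 versus no-enzyme and DMSO controls.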

[3] = biological target: T2, human full length PIK3KA Wild-type (p110α/p85α complex) (Homo sapiens, UniProt P42336); experiment: PI3K-alpha kinase (PIK3CA) biochemical activity, wild-type, ADP-Glo; details: PI3K-α (PIK3CA) biochemical, Soy PI lipid substrate
T2 construct: Recombinant, catalytically active human full length PIK3KA Wild-type and H1047R mutant were purchased as 1:1 complex; 6xHis (N); purchased EMD Millipore Sigma 14-602M
Outline: as §1

Row | Structure (SMILES) | IC50 [1] | IC50 [2] | IC50 [3]
1 | Cc1cc([C@@H](C)Nc2ccccc2C(=O)O)c2oc(-c3ccc(F)cc3F)c(C)c(=O)c2c1 [Example 75, 2-[[(1R)-1-[2-(2,4-Difluorophenyl)-3,6-dimethyl-4-oxo-chromen-8-yl]ethyl]amino]benzoic acid] | < 50 nM | < 500 nM | 1000 to 5000 nM
2 | Cc1cc([C@@H](C)Nc2cccc(Cl)c2C(=O)O)c2oc(-c3ccccc3)c(C)c(=O)c2c1 [Example 76, 2-Chloro-6-[[(1R)-1-(3,6-dimethyl-4-oxo-2-phenyl-chromen-8-yl)ethyl]amino]benzoic acid] | < 50 nM | < 500 nM | 5000 to 10000 nM
3 | Cc1cc([C@@H](C)Nc2ccccc2C(=O)O)c2oc(-c3ccc(F)c(F)c3)c(C)c(=O)c2c1 [Example 78, 2-[[(1R)-1-[2-(3,4-Difluorophenyl)-3,6-dimethyl-4-oxo-chromen-8-yl]ethyl]amino]benzoic acid 2,2,2-trifluoroacetic acid] | < 50 nM | < 500 nM | 1000 to 5000 nM
4 | C[C@@H](Nc1ccc(Cl)nc1C(=O)O)c1cc(C(F)(F)F)cc2c(=O)cc(-c3ccc(F)cc3F)oc12 [Example 81, 6-Chloro-3-[[(1R)-1-[2-(2,4-difluorophenyl)-4-oxo-6-(trifluoromethyl)-chromen-8-yl]ethyl]amino]pyridine-2-carboxylic acid] | < 50 nM | < 500 nM | 1000 to 5000 nM
5 | Cc1c(-c2ccccc2)oc2c([C@@H](C)Nc3ccccc3C(=O)O)cc(F)cc2c1=O [Example 84, 2-[[(1R)-1-(6-Fluoro-3-methyl-4-oxo-2-phenyl-chromen-8-yl)ethyl]amino]benzoic acid 2,2,2-trifluoroacetic acid] | > 500 nM | < 500 nM | 5000 to 10000 nM
6 | Cc1cc([C@@H](C)Nc2ccccc2C(=O)O)c2oc(-c3ccccc3)c(-c3cnoc3)c(=O)c2c1 [Example 85, 2-[[(1R)-1-(3-Isoxazol-4-yl-6-methyl-4-oxo-2-phenyl-chromen-8-yl)ethyl]amino]benzoic acid 2,2,2-trifluoroacetic acid] | < 50 nM | < 500 nM | 1000 to 5000 nM
7 | C[C@@H](Nc1ccc(Cl)nc1C(=O)O)c1cc(C(F)(F)F)cc2c(=O)cc(-c3ccc(F)c(F)c3)oc12 [Example 88, 6-Chloro-3-[[(1R)-1-[2-(3,4-difluorophenyl)-4-oxo-6-(trifluoromethyl)-chromen-8-yl]ethyl]amino]pyridine-2-carboxylic acid] | < 50 nM | < 500 nM | 1000 to 5000 nM
8 | Cc1c(-c2ccccc2)oc2c([C@@H](C)Nc3ccc(Cl)nc3C(=O)O)cc(C(F)(F)F)cc2c1=O [Example 91, 6-Chloro-3-[[(1R)-1-[3-methyl-4-oxo-2-phenyl-6-(trifluoromethyl)-chromen-8-yl]ethyl]amino]pyridine-2-carboxylic acid] | < 50 nM | < 500 nM | 1000 to 5000 nM
9 | Cc1cc([C@@H](C)Nc2ccccc2C(=O)O)c2oc(-c3cccc(F)c3F)c(C)c(=O)c2c1 [Example 92, 2-[[(1R)-1-[2-(2,3-Difluorophenyl)-3,6-dimethyl-4-oxo-chromen-8-yl]ethyl]amino]benzoic acid 2,2,2-trifluoroacetic acid] | < 50 nM | < 500 nM | 5000 to 10000 nM
10 | Cc1cc(C(C)Nc2cccnc2C(=O)O)c2oc(-c3ccccc3F)c(C)c(=O)c2c1 (stereo not drawn) [Example 93, 3-[1-[2-(2-Fluorophenyl)-3,6-dimethyl-4-oxo-chromen-8-yl]ethylamino]pyridine-2-carboxylic acid 2,2,2-trifluoroacetic acid] | 100 to 500 nM | 1000 to 5000 nM | > 10000 nM
11 | Cc1cc(C(C)Nc2cccc(F)c2C(=O)O)c2oc(-c3ccccc3F)c(C)c(=O)c2c1 (stereo not drawn) [Example 94, 2-Fluoro-6-[1-[2-(2-fluorophenyl)-3,6-dimethyl-4-oxo-chromen-8-yl]ethylamino]benzoic acid 2,2,2-trifluoroacetic acid] | < 50 nM | < 500 nM | 1000 to 5000 nM
12 | Cc1cc(C(C)Nc2cccc(F)c2C(=O)O)c2oc(-c3cccc(F)c3)c(C)c(=O)c2c1 (stereo not drawn) [Example 95, 2-Fluoro-6-[1-[2-(3-fluorophenyl)-3,6-dimethyl-4-oxo-chromen-8-yl]ethylamino]benzoic acid 2,2,2-trifluoroacetic acid] | < 50 nM | < 500 nM | 1000 to 5000 nM
13 | Cc1c(-c2ccc(F)c(F)c2)oc2c([C@@H](C)Nc3ccc(Cl)nc3C(=O)O)cc(C(F)(F)F)cc2c1=O [Example 96, 6-Chloro-3-[[(1R)-1-[2-(3,4-difluorophenyl)-3-methyl-4-oxo-6-(trifluoromethyl)-chromen-8-yl]ethyl]amino]pyridine-2-carboxylic acid] | < 50 nM | < 500 nM | 1000 to 5000 nM
14 | Cc1c(-c2ccccc2F)oc2c([C@@H](C)Nc3ccc(Cl)nc3C(=O)O)cc(C(F)(F)F)cc2c1=O [Example 98, 6-Chloro-3-[[(1R)-1-[2-(2-fluorophenyl)-3-methyl-4-oxo-6-(trifluoromethyl)-chromen-8-yl]ethyl]amino]pyridine-2-carboxylic acid] | < 50 nM | < 500 nM | 1000 to 5000 nM
15 | Cc1c(-c2ccc(F)cc2F)oc2c([C@@H](C)Nc3ccc(Cl)nc3C(=O)O)cc(C(F)(F)F)cc2c1=O [Example 99, 6-Chloro-3-[[(1R)-1-[2-(2,4-difluorophenyl)-3-methyl-4-oxo-6-(trifluoromethyl)-chromen-8-yl]ethyl]amino]pyridine-2-carboxylic acid] | < 50 nM | < 500 nM | 500 to 1000 nM

Continued, values first:

Row | IC50 [1] | IC50 [2] | IC50 [3] | Structure (SMILES)
16 | < 50 nM | < 500 nM | < 500 nM | Cc1cc(C(C)Nc2ccc(C)nc2C(=O)O)c2oc(-c3ccccc3)c(C(F)(F)F)c(=O)c2c1 (stereo not drawn) [Example 101, 6-Methyl-3-[1-[6-methyl-4-oxo-2-phenyl-3-(trifluoromethyl)-chromen-8-yl]ethylamino]pyridine-2-carboxylic acid 2,2,2-trifluoroacetic acid]
17 | < 50 nM | < 500 nM | 1000 to 5000 nM | Cc1c(-c2ccccc2)oc2c([C@@H](C)Nc3ccccc3C(=O)O)cc(C(F)(F)F)cc2c1=O [Example 102, 2-[[(1R)-1-[3-Methyl-4-oxo-2-phenyl-6-(trifluoromethyl)-chromen-8-yl]ethyl]amino]benzoic acid]
18 | < 50 nM | < 500 nM | 1000 to 5000 nM | Cc1cc(C(C)Nc2ccccc2C(=O)O)c2oc(-c3ccccc3)c(F)c(=O)c2c1 (stereo not drawn) [Example 111, 2-[1-(3-Fluoro-6-methyl-4-oxo-2-phenyl-chromen-8-yl)ethylamino]benzoic acid 2,2,2-trifluoroacetic acid]
19 | 50 to 100 nM | < 500 nM | 1000 to 5000 nM | Cc1cc([C@@H](C)Nc2ccccc2C(=O)O)c2oc(-c3ccccc3)c(C3COC3)c(=O)c2c1 [Example 112, 2-[[(1R)-1-[6-methyl-3-(oxetan-3-yl)-4-oxo-2-phenyl-chromen-8-yl]ethyl]amino]benzoic acid 2,2,2-trifluoroacetic acid]
20 | < 50 nM | < 500 nM | 1000 to 5000 nM | Cc1cc([C@@H](C)Nc2ccc(Cl)nc2C(=O)O)c2oc(-c3ccc(F)c(F)c3)c(C)c(=O)c2c1 [Example 113, 6-Chloro-3-[[(1R)-1-[2-(3,4-difluorophenyl)-3,6-dimethyl-4-oxo-chromen-8-yl]ethyl]amino]pyridine-2-carboxylic acid]
21 | < 50 nM | < 500 nM | 1000 to 5000 nM | Cc1cc([C@@H](C)Nc2ccc(Cl)nc2C(=O)O)c2oc(-c3ccccc3F)c(C)c(=O)c2c1 [Example 114, 6-Chloro-3-[[(1R)-1-[2-(2-fluorophenyl)-3,6-dimethyl-4-oxo-chromen-8-yl]ethyl]amino]pyridine-2-carboxylic acid 2,2,2-trifluoroacetic acid]
22 | < 50 nM | < 500 nM | < 500 nM | Cc1cc([C@@H](C)Nc2ccc(Cl)nc2C(=O)O)c2oc(-c3cccc(C#N)c3)c(C)c(=O)c2c1 [Example 115, 6-Chloro-3-[[(1R)-1-[2-(3-cyanophenyl)-3,6-dimethyl-4-oxo-chromen-8-yl]ethyl]amino]pyridine-2-carboxylic acid 2,2,2-trifluoroacetic acid]
23 | < 50 nM | < 500 nM | 1000 to 5000 nM | Cc1cc([C@@H](C)Nc2ccccc2C(=O)O)c2oc(-c3cccc(C(C)(C)C#N)c3)c(C)c(=O)c2c1 [Example 117, 2-[[(1R)-1-[2-[3-(1-Cyano-1-methyl-ethyl)phenyl]-3,6-dimethyl-4-oxo-chromen-8-yl]ethyl]amino]benzoic acid 2,2,2-trifluoroacetic acid]
24 | 100 to 500 nM | < 500 nM | 1000 to 5000 nM | Cc1cc([C@@H](C)Nc2ccccc2C(=O)O)c2oc(-c3cccc(C(C)(C)C(N)=O)c3)c(C)c(=O)c2c1 [Example 118, 2-[[(1R)-1-[2-[3-(2-Amino-1,1-dimethyl-2-oxo-ethyl)phenyl]-3,6-dimethyl-4-oxo-chromen-8-yl]ethyl]amino]benzoic acid 2,2,2-trifluoroacetic acid]
